Results taken from article PMC4438233, “Antibacterial effects of Traditional Chinese Medicine monomers against Streptococcus pneumoniae via inhibiting pneumococcal histidine kinase (VicK)” (Frontiers in Microbiology, 2015).
Read-outs that look alike come from different tables or passages of the source. Marks after values point to notes of the source that are not given here.

Legend:
S. pneumoniae NCTC7466 = test: MIC against S. pneumoniae NCTC7466 (D39); format: cell-based; details: Streptococcus pneumoniae, S. pneumoniae NCTC7466 (D39), read-out: MIC
Experimental: (§1) Minimum inhibitory concentration (MIC) assays for the antibacterial activities of the compounds were performed according to the standard […] method of the Clinical and Laboratory Standards Institute of America. MIC testing of drug-resistant S. pneumoniae, drug-resistant S. aureus, streptococci and antimicrobial combination was also performed using the same method. Briefly, the drugs were serially diluted 2-fold into eight wells with C+Y medium, yielding final concentrations ranging from […]. Then 10^6 CFU bacteria were added to each well. Inoculated medium containing 1% DMSO served as a bacterial growth control, whereas uninoculated medium served as a sterility control. The plates were incubated at 37°C for 12–16 h. […] The experiment was repeated three times.

pneumococcal strains = test: MIC against clinical pneumococcal strains (penicillin susceptible, intermediate, resistant); format: cell-based, Streptococcus pneumoniae; details: for MIC50 / MIC90: Streptococcus pneumoniae; for MIC50: read-out: MIC of pneumococcal strains, MIC50; for MIC90: read-out: MIC of pneumococcal strains, MIC90
Experimental: as §1

S. pyogenes = test: MIC against S. pyogenes; format: cell-based; details: Streptococcus pyogenes; S. pyogenes clinical isolate; 10^6 CFU/ml; read-out: MIC
Experimental: as §1

S. mitis = test: MIC against S. mitis; format: cell-based; details: Streptococcus mitis; S. mitis clinical isolate; 10^6 CFU/ml; read-out: MIC
Experimental: as §1

S. mutans = test: MIC against S. mutans; format: cell-based; details: Streptococcus mutans; S. mutans clinical isolate; 10^6 CFU/ml; read-out: MIC
Experimental: as §1

S. pseudopneumoniae = test: MIC against S. pseudopneumoniae; format: cell-based; details: Streptococcus pseudopneumoniae; S. pseudopneumoniae clinical isolate; 10^6 CFU/ml; read-out: MIC
Experimental: as §1

[1] = system: Methicillin resistant S. aureus; test: MIC against methicillin resistant S. aureus; format: cell-based; details: Staphylococcus aureus; Methicillin resistant S. aureus (4 isolates); 10^6 CFU/ml; read-out: MIC
Experimental: as §1

Cytotoxicity assay (MTT) = format: cell-based; details: African green monkey, Vero cells (African green monkey kidney cells)
Experimental: The cytotoxicity of the drugs to Vero cells (African green monkey kidney cells) was detected as previously described (Huang et al., [2012]) with minor modifications. In 96-well cell culture plates, the cells (~10^3 cells per well) were exposed to the serially diluted drugs for 48 h. Then, relative cell numbers were assayed by co-incubation with 3-(4, 5-dimethylthiazol-2-yl)-2, 5-diphenyltetrazolium bromide for 4 h at 37°C in 5% CO2. Purple formazan salts were dissolved with DMSO after incubation. The absorbance of each well was measured at 595 nm and then converted to percentages of the control (cells treated with 1% DMSO). The concentration of the derivatives with 50% cytotoxicity for Vero cells (CC50) was calculated using GraphPad Prism 5 (San Diego, CA).

[2] = system: Penicillin-resistant S. pneumoniae strains; test: Checkerboard test with penicillin against penicillin-resistant S. pneumoniae; format: cell-based, Streptococcus pneumoniae; details: Streptococcus pneumoniae, agent alone, read-out: MIC, Alone
Experimental: as §1
(§2) The antimicrobial effects of different combinations of two antimicrobial agents were assayed using the checkerboard test (Bajaksouzian et al., [1997]). Each experiment was repeated thrice. The in vitro interaction between the five drugs with PEN was quantified by the fractional inhibitory concentration (FIC). The FIC index (FICI) was calculated using the following formula:
(§3) (2) FIC=FICA+FICB=[A]/MICA+[B]/MICB
(§4) where [A] and [B] are the concentrations of drugs A and B, respectively; MICA and FICA are the MIC and FIC of drug A for the organism, respectively; and MICB, and FICB are the MIC and FIC of drug B for the organism, respectively. The FIC index obtained was interpreted as follows: =0.5, synergy; FIC > 2.0, antagonism (Gupta and Kohli, [2003]).

S. aureus = test: Checkerboard test with penicillin against S. aureus; format: cell-based, Staphylococcus aureus; details: for MIC: Staphylococcus aureus, agent alone, read-out: MIC, Alone
Experimental: as §1, §2, §3, §4

S. pneumoniae = test: Checkerboard test with erythromycin or tetracycline against S. pneumoniae; format: cell-based, Streptococcus pneumoniae
Experimental: The antimicrobial effects of different combinations of two antimicrobial agents were assayed using the checkerboard test (Bajaksouzian et al., [1997]). Each experiment was repeated thrice. […] The FIC index (FICI) was calculated using the following formula:
as §3, §4

[3] = system: clinical S. pneumoniae 19A (CMCC31689); test: Mouse colonization model, serotype 19A; format: in vivo, BALB/c mice; details: for Mean log CFU at site of infection: 19A
Experimental: (§5) In colonization models, the mice were intranasally challenged by 20 μL of clinical drug-resistant strains (pneumococcal serotype 19F or 19A, 1.5 × 10^8 CFU). An hour later, the mice were intraperitoneally injected with 100 μL drugs (2 × MIC) alone or in combination with PEN (2 × MIC). These injections were continued thrice a day for 3 d. Nasal wash and lung tissues were obtained to analyze the bacteria load at 24, 48, and 72 h after drug infection. Then 100 μL aliquots of the samples diluted were plated on blood agar plates. The colonies were counted after incubation overnight at 37°C with 5% CO2.

[4] = system: clinical S. pneumoniae 19F (CMCC31693); test: Mouse colonization model, serotype 19F; format: in vivo, BALB/c mice; details: for Mean log CFU at site of infection: 19F
Experimental: as §5

[5] = system: S. pneumoniae NCTC7466 biofilm; test: Biofilm-killing assay (crystal violet); format: cell-based, Streptococcus pneumoniae; details: crystal violet staining; 15.6–2000 μM; MIC or sub-MIC levels
Experimental: Biofilm formation was detected using a semiquantitative plate assay (Moscoso et al., [2006]). 10^6 CFU of D39 was incubated in C+Y medium for 6 h in a 96-well plate at 37°C. Then removed the planktonic cells, fresh C+Y medium containing the serially diluted drugs was added to each well and incubated for another 12 h at 37°C. The wells were washed gently three times with phosphate-buffered saline (PBS) and then stained with 1% (w/v) crystal violet. 200 μL methanol was added to dissolve the precipitate and determine the absorbance of the wells at 590 nm using a spectrophotometer (DTX880, Beckman Coulter, USA). The values of biofilm formation were normalized for absorbance, and the percentages were calculated in relation to control. The experiment was repeated twice.

[6] = Penicillin intermediate (n = 12)
[7] = in combination with Erythromycin
[8] = in combination with Tetracycline

**Q.** Which MIC (S. pneumoniae NCTC7466) does the source give for `CCCCCCCCCCCCOC(=O)c1cc(O)c(O)c(O)c1` [Compound 5, Dodecyl gallate] here?
**A.** Its MIC is 21 µg/mL.

**Q.** What about the MIC (S. pneumoniae NCTC7466; value in parentheses) of the same molecule?
**A.** The MIC was 62 µM.

**Q.** And the “MIC of pneumococcal strains, Range” value (pneumococcal strains; [6])?
**A.** The value was 42 to 168 µg/mL.

**Q.** What about the “MIC of pneumococcal strains, MIC50” value (pneumococcal strains; Penicillin resistant (n = 15)) of the same molecule?
**A.** Its value is 42 µg/mL.

**Q.** And the “MIC of pneumococcal strains, Range” value (pneumococcal strains; Penicillin resistant (n = 15))?
**A.** Its value is 10.5 to 168.8 µg/mL.

**Q.** And the “MIC of pneumococcal strains, Range” value (pneumococcal strains; Penicillin susceptible (n = 7))?
**A.** The value was 21 to 168 µg/mL.

**Q.** And the MIC50 (pneumococcal strains; [6])?
**A.** The MIC50 was 84 µg/mL.

**Q.** What about the MIC90 (pneumococcal strains; [6]) of the same molecule?
**A.** The MIC90 was 168 µg/mL.

**Q.** What about the MIC50 (pneumococcal strains; Penicillin resistant (n = 15)) of the same molecule?
**A.** The MIC50 was 42 µg/mL.

**Q.** What about the MIC90 (pneumococcal strains; Penicillin resistant (n = 15)) of the same molecule?
**A.** The MIC90 was 169 µg/mL.

**Q.** What about the MIC50 (pneumococcal strains; Penicillin susceptible (n = 7)) of the same molecule?
**A.** The MIC50 was 42 µg/mL.

**Q.** What about the MIC90 (pneumococcal strains; Penicillin susceptible (n = 7)) of the same molecule?
**A.** Its MIC90 is 42 µg/mL.

**Q.** And the MIC (S. pyogenes)?
**A.** The MIC was 42 µg/mL.

**Q.** And the MIC (S. mitis)?
**A.** The MIC was 338 µg/mL.

**Q.** What about the MIC (S. mutans) of the same molecule?
**A.** The MIC was 42 µg/mL.

**Q.** And the MIC (S. pseudopneumoniae)?
**A.** The MIC was 42 µg/mL.

**Q.** And the MIC [1]?
**A.** The MIC was 84.4 to 336 µg/mL.

**Q.** And the CC50 at 48 h (Cytotoxicity assay (MTT))?
**A.** Its CC50 at 48 h is 6.45 mM.

**Q.** And the MIC ([2]; strain 652336)?
**A.** Its MIC is 84.4 µg/mL.

**Q.** And the MIC ([2]; strain 736007)?
**A.** Its MIC is 337 µg/mL.

**Q.** What about the MIC ([2]; strain 8364981) of the same molecule?
**A.** The MIC was 168 µg/mL.

**Q.** What about the MIC ([2]; strain 12092624) of the same molecule?
**A.** Its MIC is 84.4 µg/mL.

**Q.** What about the MIC (S. aureus; ATCC29213, S. aureus ATCC29213) of the same molecule?
**A.** The MIC was 168 µg/mL.

**Q.** What about the MIC (S. aureus; MRSA8506305) of the same molecule?
**A.** The MIC was 337 µg/mL.

**Q.** And the MIC (S. aureus; MRSA8548991)?
**A.** The MIC was 84.4 µg/mL.

**Q.** And the MIC (S. aureus; MRSA, MRSA 8569082)?
**A.** The MIC was 84.4 µg/mL.

**Q.** What about the “reduction of MIC in combination with PEN” value (S. aureus; four strains of MRSA) of the same molecule?
**A.** Its value is 2 fold.

**Q.** What about the FICI (S. pneumoniae; [7]) of the same molecule?
**A.** Its FICI is 0.31.

**Q.** What about the Outcome (S. pneumoniae; [7]) of the same molecule?
**A.** Its Outcome is “Synergy (=0.5, synergy)”.

**Q.** What about the FICI (S. pneumoniae; [8]) of the same molecule?
**A.** Its FICI is 0.18.

**Q.** And the Outcome (S. pneumoniae; [8])?
**A.** The Outcome was “Synergy (=0.5, synergy)”.

**Q.** What about the “Mean log CFU at site of infection” value ([3]; Lung, 24 h, control 4.85) of the same molecule?
**A.** The value was 1 log CFU.

**Q.** And the “Mean log CFU at site of infection” value ([3]; Lung, 48 h, control 6.12)?
**A.** The value was 3 log CFU.

**Q.** And the “Mean log CFU at site of infection” value ([3]; Lung, 72 h, control 6.29)?
**A.** The value was 2.82 log CFU.

**Q.** And the “Mean log CFU at site of infection” value ([3]; NW (nasal wash), 24 h, i.p. three times a day for 3 days, control 7.29)?
**A.** The value was 5.91 (0.021)^b log CFU.

**Q.** And the “Mean log CFU at site of infection” value ([3]; NW, 48 h, control 5.97)?
**A.** Its value is 5.28 log CFU.

**Q.** And the “Mean log CFU at site of infection” value ([3]; NW, 72 h, control 6.01)?
**A.** The value was 3.62 (0.033)^b log CFU.

**Q.** What about the “reduction of 19A bacterial numbers” value ([3]; at 24 h) of the same molecule?
**A.** Its value is “two-log reduction”.

**Q.** And the “Mean log CFU at site of infection” value ([4]; Lung, 24 h, control 2.82)?
**A.** The value was 3.9 (0.0001)^b log CFU.

**Q.** And the “Mean log CFU at site of infection” value ([4]; Lung, 48 h, control 7.57)?
**A.** Its value is 3 (0.006)^b log CFU.

**Q.** And the “Mean log CFU at site of infection” value ([4]; Lung, 72 h, control 4.95)?
**A.** Its value is 2.8 (<0.0001)^b log CFU.

**Q.** What about the “Mean log CFU at site of infection” value ([4]; NW (nasal wash), 24 h, i.p. three times a day for 3 days, control 6.72) of the same molecule?
**A.** The value was 2.16 log CFU.

**Q.** And the “Mean log CFU at site of infection” value ([4]; NW, 48 h, control 6.27)?
**A.** Its value is 5.55 log CFU.

**Q.** What about the “Mean log CFU at site of infection” value ([4]; NW, 72 h, control 7.09) of the same molecule?
**A.** Its value is 5.82 (<0.0001)^b log CFU.

**Q.** What about the “reduction in 19F bacterial numbers” value ([4]; at 24 h) of the same molecule?
**A.** Its value is “one-log reduction”.

**Q.** And the “inhibition of biofilm formation” value [5]?
**A.** The value was “inhibit biofilm formation at sub-MIC”.
